Data reported in patent US20220251124A1, “3,5-BIS(PHENYL)-1H-HETEROARYL DERIVATIVES AS MEDICAMENTS” (INSTITUTE OF BIOTECHNOLOGY CAS, V.V.I., priority 2019, published 2022).
Like-named read-outs stand apart in the source and are kept apart here.

Legend:
Format in all cases: cell-based
MCF7 cells [1] = test: crystal violet assay, cellular viability (cytostatic and cytotoxic effect), 48 hrs
Description: (§1) Compound 1 and a comparative compound deferasirox (DFX) were tested in their efficacy to kill/suppress proliferation of malignant breast cancer MCF7 cells representing estrogen-dependent type of breast cancer. Briefly, 10.000 cells per well were seeded in a 96-well plate on one day and the next day the tested compounds were added and incubated with the cells for 48 hrs. The cells were then fixed with 4% paraformaldehyde, stained with 0.05% crystal violet, washed with PBS, and solubilized in 1% SDS. The absorbance of the plate at 595 nm was then measured, quantifying the number of viable cells.

MDA-MB-231 cells = test: crystal violet assay, cellular viability, 48 hrs; details: for IC50: MDA-MB-231, crystal violet
Description: as §1
Compound 1 and the comparative compound deferasirox were tested in their efficacy to kill/suppress proliferation of malignant MDA-MB-231 cancer cells representing hard to treat triple negative breast cancer. The procedure is identical to that in example 12.

[2] = system: MCF7 mammospheres (cancer stem-like cells); test: formation and growth of mammospheres, Cell Titer Glo 3D; details: 1 μM, 140 hrs
Description: To test the effect of compound 1 on the viability and proliferation of other resistant cancer cell types, we utilized a model of cancer stem-like cells that can be cultivated in vitro, so-called “mammospheres”. […] In this assay MCF7 spheres were dissociated to single cells/small spheres, seeded 10,000 cells per well on a special cell culture plastic that is non adherent in the Mammocult medium (Stem cell technologies) and compound 1 and compound 2 at 1 μM were added. This represents the non-cytotoxic concentration. Cells were left to grow and generate spheres for 140 hrs. The amount of cells was then measured by the Cell TiterGlo 3D reagent (Promega) that determines cell counts of 3D cultured cells as a function of their ATP content that is determined by a chemiluminescent assay.

[3] = system: MDA-MB-231 cells stably transfected with KEIMA; test: mitophagy induction, KEIMA reporter; details: 24 hours
Description: (§2) The effect of compounds 1 and 2 on mitophagy induction was assessed in MCF7 and MDA-MB-231 cells using the reporter protein KEIMA. The excitation spectra of KEIMA changes according to the mitochondrial pH, having an excitation peak at 440 nm atr pH>6 and at 586 at pH<5, with a second excitation peak remaining constant at 620 nm. Therefore, a decrease in the 440 nm/586 nm fluorescence ratio indicates mitochondrial acidification. MCF7 and MDA-MB-231 cells stably transfected with KEIMA were incubated with compound 1 for 24 hours and their fluorescence at both excitation wavelengths was measured by flow cytometry.

[4] = system: MCF7 cells stably transfected with KEIMA; test: mitophagy induction, KEIMA reporter; details: 24 hours
Description: as §2

MDA-MB-231 [5] = test: annexin V/PI staining, cell death induction, 48 hrs
Description: This effect seems to be based mainly on the cytostatic effect of compound 1. To define the ability to kill cells, cell death-inducing potency (cytotoxic efficacy) of DFX and compound 1 have been tested via annexin V/PI staining commonly used as a measure of apoptotic/necrotic cell death. Briefly, cells were seeded in 12-well plate at 100,000 per well, incubated with the selected compounds for 48 hours, then floating cells were spun, adherent cells trypsinized and spun as well followed by the staining with AnnexinV-FITC and PI probes. Cells were then washed with PBS and measured via Fluorescence Activated Sorter.
Since compound 1 is an iron chelator, we have evaluated the effect of pre-loading compound 1 with iron at a 2:1 ratio and then applying it to the cells, followed by measurement of cell death using the Annexin V/PI staining as in example 4.

MCF7 cells [6] = test: oxygen consumption rate (OCR), Seahorse XFe96; details: for Oxygen consumption rate, Basal / Oxygen consumption rate, Maximal / Oxygen consumption rate, Proton-leak: MCF7
Description: For Seahorse analysis, 20.000 cells were seeded in 96 well plates and added immediately before measurement (addition, Table 6) or incubated with compound 1 for 1 hour (preincubation, Table 7). Afterwards, oxygen consumption rate (OCR) was measured in three cycles of 3 minutes preceded by 3 minutes of mixing, using a Seahorse XFe96 analyzer (Agilent). Results express the mean values of the three cycles.

MDA-MB-231 [7] = test: cell cycle distribution, Vybrant DyeCycle Violet, flow cytometry; details: 1 μM
Description: (§3) In order to define the effect on cellular level, we investigated the effect of compound 1 and 2 at non-cytotoxic concentrations of the drugs (1 μM) on cell cycle. Cells were cultivated with the compounds for 24 and 48 hrs and then stained with Vybrant DyeCycle VioletReady Flow reagent (ThermoFisher Scientific) that binds to DNA and analyzed by Flow cytometry and Kaluza program to define the proportions of G1,S and G2/M phases of cell cycle. It is evident that both compounds lead to accumulation of cells in G1 phase if the cell cycle, which become more prominent at later time points (see Table 12, 13).

MCF7 = test: as above; details: 1 μM
Description: as §3

[8] = Homo sapiens, MCF7, read-out: viable cells compared to non-treated controls
[9] = Homo sapiens, MDA-MB-231, read-out: viable cells compared to non-treated controls

O=C(O)c1ccc(-n2nc(-c3ccccc3O)nc2-c2ccccc2O)cc1 [DFX, deferasirox, reference compound]
viability at 1 µM (MCF7 cells [1]; [8]): 104%
viability at 3 µM (MCF7 cells [1]; [8]): 76%
viability at 10 µM (MCF7 cells [1]; [8]): 56.5%
viability at 30 µM (MCF7 cells [1]; [8]): 23.9%
IC50 (MCF7 cells [1]; Homo sapiens, MCF7, 48 h, MCF7 (parental/control), crystal violet, read-out: IC50): 10000 nM
IC50 (MCF7 cells [1]; MCF7 (parental/control), crystal violet, read-out: IC50): 10900 nM
viability at 1 µM (MDA-MB-231 cells; [9]): 109%
viability at 3 µM (MDA-MB-231 cells; [9]): 90.8%
viability at 10 µM (MDA-MB-231 cells; [9]): 70.4%
viability at 30 µM (MDA-MB-231 cells; [9]): 62.1%
viability at 100 µM (MDA-MB-231 cells; Homo sapiens, 100 μM, MDA-MB-231, read-out: viable cells compared to non-treated controls): 55.7%
viability at 300 µM (MDA-MB-231 cells; Homo sapiens, 300 μM, MDA-MB-231, read-out: viable cells compared to non-treated controls): 14.1%
IC50 (MDA-MB-231 cells; Homo sapiens, MDA-MB-231, 48 h, read-out: IC50): 70000 nM
IC50 (MDA-MB-231 cells; read-out: IC50): 70000 nM

O=C(NCCCCCCCCCC[P+](c1ccccc1)(c1ccccc1)c1ccccc1)c1ccc(-n2nc(-c3ccccc3O)nc2-c2ccccc2O)cc1 [Compound 1, (10-(4-(3,5-bis(2-hydroxyphenyl)-1H-1,2,4-triazol-1-yl)benzamido)decyl) triphenylphosphonium Chloride]
chemiluminescence ATP values normalized to control sample set as 100 [2]: 6.61 (1.91)
KEIMA 440 nm/586 nm fluorescence ratio ([3]; 1.5 μM): 0.81 (0.02)
KEIMA 440 nm/586 nm fluorescence ratio ([3]; 2.5 μM): 0.81 (0.03)
KEIMA 440 nm/586 nm fluorescence ratio ([3]; 5 μM): 0.76 (0.10)
KEIMA 440 nm/586 nm fluorescence ratio ([3]; 10 μM): 0.50 (0.04)
KEIMA 440 nm/586 nm fluorescence ratio ([4]; 1.5 μM): 1.01 (0.14)
KEIMA 440 nm/586 nm fluorescence ratio ([4]; 2.5 μM): 0.99 (0.13)
KEIMA 440 nm/586 nm fluorescence ratio ([4]; 5 μM): 0.86 (0.15)
KEIMA 440 nm/586 nm fluorescence ratio ([4]; 10 μM): 0.71 (0.25)
dead cells (AnnexinV/PI) (MDA-MB-231 [5]; 5 μM): 53.5 (23.1) %
dead cells (AnnexinV/PI) (MDA-MB-231 [5]; 5 μM, +Fe^+3 (pre-loaded with iron at a 2:1 ratio)): 15.9 (2.7) %
dead cells (AnnexinV/PI) (MDA-MB-231 [5]; 5 μM, alone): 61.1 (18.8) %
dead cells (AnnexinV/PI) (MDA-MB-231 [5]; 10 μM, +Fe^+3 (pre-loaded with iron at a 2:1 ratio)): 22.4 (6.1) %
dead cells (AnnexinV/PI) (MDA-MB-231 [5]; 10 μM, alone): 88.2 (5.8) %
viability at 0.03 µM (MCF7 cells [1]; Homo sapiens, 0.030 μM, MCF7, read-out: viable cells compared to non-treated controls): 33.7%
viability at 0.1 µM (MCF7 cells [1]; Homo sapiens, 0.100 μM, MCF7, read-out: viable cells compared to non-treated controls): 23.6%
viability at 0.3 µM (MCF7 cells [1]; Homo sapiens, 0.300 μM, MCF7, read-out: viable cells compared to non-treated controls): 14.8%
viability at 1 µM (MCF7 cells [1]; [8]): 7.28%
viability at 3 µM (MCF7 cells [1]; [8]): 5.2%
viability at 10 µM (MCF7 cells [1]; [8]): 2.31%
viability at 30 µM (MCF7 cells [1]; [8]): 0.69%
IC50 (MCF7 cells [1]; Homo sapiens, MCF7 (parental/control), crystal violet, read-out: IC50): 8 nM
IC50 (MCF7 cells [1]; Homo sapiens, MCF7, crystal violet, read-out: IC50 (suppression of proliferation to 50%)): 8 nM
Oxygen consumption rate, Basal (MCF7 cells [6]; 5 μM, 1 h preincubation): 39.9 (5.8) pmol*min^−1 10.000 cells^−1
Oxygen consumption rate, Maximal (MCF7 cells [6]; 5 μM, 1 h preincubation): 20.7 (4.5) pmol*min^−1 10.000 cells^−1
Oxygen consumption rate, Proton-leak (MCF7 cells [6]; 5 μM, 1 h preincubation): 33.1 (4.7) pmol*min^−1 10.000 cells^−1
Oxygen consumption rate, Basal (MCF7 cells [6]; 5 μM, immediate addition): 52.4 (9.2) pmol*min^−1 10.000 cells^−1
Oxygen consumption rate, Maximal (MCF7 cells [6]; 5 μM, immediate addition): 29.7 (5.8) pmol*min^−1 10.000 cells^−1
Oxygen consumption rate, Proton-leak (MCF7 cells [6]; 5 μM, immediate addition): 43.5 (7.6) pmol*min^−1 10.000 cells^−1
Oxygen consumption rate, Basal (MCF7 cells [6]; 10 μM, 1 h preincubation): 30.9 (3.1) pmol*min^−1 10.000 cells^−1
Oxygen consumption rate, Maximal (MCF7 cells [6]; 10 μM, 1 h preincubation): 17.4 (3.8) pmol*min^−1 10.000 cells^−1
Oxygen consumption rate, Proton-leak (MCF7 cells [6]; 10 μM, 1 h preincubation): 25.9 (3.1) pmol*min^−1 10.000 cells^−1
Oxygen consumption rate, Basal (MCF7 cells [6]; 10 μM, immediate addition): 49.6 (9.6) pmol*min^−1 10.000 cells^−1
Oxygen consumption rate, Maximal (MCF7 cells [6]; 10 μM, immediate addition): 26.3 (5.4) pmol*min^−1 10.000 cells^−1
Oxygen consumption rate, Proton-leak (MCF7 cells [6]; 10 μM, immediate addition): 37.3 (6.1) pmol*min^−1 10.000 cells^−1
effect on cellular respiration (MCF7 cells [6]; OCR, Seahorse): marked inhibition of cellular respiration
viability at 0.03 µM (MDA-MB-231 cells; Homo sapiens, 0.030 μM, MDA-MB-231, read-out: viable cells compared to non-treated controls): 71.1%
viability at 0.1 µM (MDA-MB-231 cells; Homo sapiens, 0.100 μM, MDA-MB-231, read-out: viable cells compared to non-treated controls): 52.5%
viability at 0.3 µM (MDA-MB-231 cells; Homo sapiens, 0.300 μM, MDA-MB-231, read-out: viable cells compared to non-treated controls): 37.4%
viability at 1 µM (MDA-MB-231 cells; [9]): 27.8%
viability at 3 µM (MDA-MB-231 cells; [9]): 18.2%
viability at 10 µM (MDA-MB-231 cells; [9]): 0.29%
viability at 30 µM (MDA-MB-231 cells; [9]): 0.51%
IC50 (MDA-MB-231 cells; Homo sapiens, MDA-MB-231, 48 h): 131 nM
IC50 (MDA-MB-231 cells; Homo sapiens, MDA-MB-231, 48 h, text): 131 nM
IC50 (MDA-MB-231 cells): 130 nM
proportion of cells in G1 (MDA-MB-231 [7]; 24 hrs): 64.6 (2.0)
proportion of cells in G2 (MDA-MB-231 [7]; 24 hrs): 27.7 (2.3)
proportion of cells in S (MDA-MB-231 [7]; 24 hrs): 7.7
proportion of cells in G1 (MDA-MB-231 [7]; 48 hrs): 65.0 (4.1)
proportion of cells in G2 (MDA-MB-231 [7]; 48 hrs): 25.2 (3.3)
proportion of cells in S (MDA-MB-231 [7]; 48 hrs): 9.8
proportion of cells in G1 (MCF7; 24 hrs): 82.8 (1.6)
proportion of cells in G2 (MCF7; 24 hrs): 13.2
proportion of cells in S (MCF7; 24 hrs): 4.0
proportion of cells in G1 (MCF7; 48 hrs): 75.8 (2.1)
proportion of cells in G2 (MCF7; 48 hrs): 12.4 (2.5)
proportion of cells in S (MCF7; 48 hrs): 11.9 (2.3)
